Assay results as given in ChEMBL document CHEMBL4425170, “Novel Series of Potent Glucokinase Activators Leading to the Discovery of AM-2394” (ACS Med Chem Lett, 2016).
Converted amounts (≈) assume the structure as drawn.

Legend:
[1] = in vivo; settings: mouse, po, 5 mg/kg
[2] = physchem; settings: SIF, pH 6.8
[3] = Cmax in mouse at 5 mg/kg, po; format: ADME, organism-based; design: dose 5 mg/kg, route oral; settings: in vivo
[4] = Cmax in rat at 2 mg/kg, po; format: ADME, organism-based; design: dose 2 mg/kg, route oral; settings: in vivo
[5] = Cmax in cynomolgus monkey at 2 mg/kg, po; format: ADME, organism-based, Macaca fascicularis; design: dose 2 mg/kg, route oral; settings: in vivo
[6] = Cmax in dog at 2 mg/kg, po; format: ADME, organism-based, Canis lupus familiaris; design: dose 2 mg/kg, route oral; settings: in vivo
[7] = Tmax in mouse at 5 mg/kg, po or 1 mg/kg, iv; format: ADME, organism-based; settings: in vivo
[8] = Tmax in rat at 2 mg/kg, po or 0.5 mg/kg, iv; format: ADME, organism-based; settings: in vivo
[9] = Tmax in cynomolgus monkey at 2 mg/kg, po or 0.5 mg/kg, iv; format: ADME, organism-based, Macaca fascicularis; settings: in vivo
[10] = Tmax in dog at 2 mg/kg, po or 0.5 mg/kg, iv; format: ADME, organism-based, Canis lupus familiaris; settings: in vivo
[11] = Clearance in mouse at 5 mg/kg, po or 1 mg/kg, iv; format: ADME, organism-based; settings: in vivo
[12] = Clearance in rat at 2 mg/kg, po or 0.5 mg/kg, iv; format: ADME, organism-based; settings: in vivo
[13] = Clearance in cynomolgus monkey at 2 mg/kg, po or 0.5 mg/kg, iv; format: ADME, organism-based, Macaca fascicularis; settings: in vivo
[14] = Clearance in dog at 2 mg/kg, po or 0.5 mg/kg, iv; format: ADME, organism-based, Canis lupus familiaris; settings: in vivo
[15] = Volume of distribution at steady state in mouse at 5 mg/kg, po or 1 mg/kg, iv; format: ADME, organism-based; settings: in vivo, read-out: Vdss
[16] = Volume of distribution at steady state in rat at 2 mg/kg, po or 0.5 mg/kg, iv; format: ADME, organism-based; settings: in vivo, read-out: Vdss
[17] = Volume of distribution at steady state in cynomolgus monkey at 2 mg/kg, po or 0.5 mg/kg, iv; format: ADME, organism-based, Macaca fascicularis; settings: in vivo, read-out: Vdss
[18] = Volume of distribution at steady state in dog at 2 mg/kg, po or 0.5 mg/kg, iv; format: ADME, organism-based, Canis lupus familiaris; settings: in vivo, read-out: Vdss
[19] = Half life in mouse at 1 mg/kg, iv; format: ADME, organism-based; settings: in vivo
[20] = Half life in rat at 0.5 mg/kg, iv; format: ADME, organism-based; settings: in vivo
[21] = Half life in cynomolgus monkey at 0.5 mg/kg, iv; format: ADME, organism-based, Macaca fascicularis; settings: in vivo
[22] = Half life in dog at 0.5 mg/kg, iv; format: ADME, organism-based, Canis lupus familiaris; settings: in vivo
[23] = Oral bioavailability in cynomolgus monkey at 2 mg/kg; format: ADME, organism-based, Macaca fascicularis; settings: in vivo
[24] = Oral bioavailability in dog at 2 mg/kg; format: ADME, organism-based, Canis lupus familiaris; settings: in vivo
[25] = Terminal plasma concentration in ob/ob mouse at 3 mg/kg, po administered 30 mins prior to testing by oral glucose tolerance test; format: ADME, organism-based; settings: read-out: Cp(T)
[26] = Terminal plasma concentration in ob/ob mouse at 10 mg/kg, po administered 30 mins prior to testing by oral glucose tolerance test; format: ADME, organism-based; settings: read-out: Cp(T)
[27] = Terminal plasma concentration in ob/ob mouse at 30 mg/kg, po administered 30 mins prior to testing by oral glucose tolerance test; format: ADME, organism-based; settings: read-out: Cp(T)

## CNC(=O)Nc1cc(Oc2cncc(C)c2)c(-c2ccc(OCCO)nc2)cn1
[1]
  bioavailability: 6%
[2]
  solubility: < 1 µM

## CNC(=O)Nc1cc(Oc2cncc(C)c2)c(-c2ccc(OCC(C)(C)O)nc2)cn1
[3]
  Cmax: 350 nM
[4]
  Cmax: 490 nM
[5]
  Cmax: 1150 nM
[6]
  Cmax: 3520 nM
[7]
  Tmax: 0.33 h
[8]
  Tmax: 0.83 h
[9]
  Tmax: 1.67 h
[10]
  Tmax: 1.33 h
[11]
  clearance: 6.17 mL/min/kg
[12]
  clearance: 27.3 mL/min/kg
[13]
  clearance: 10 mL/min/kg
[14]
  clearance: 4.17 mL/min/kg
[15]
  Vd: 0.59 L/kg
[16]
  Vd: 2.18 L/kg
[17]
  Vd: 2.29 L/kg
[18]
  Vd: 1.49 L/kg
[19]
  half-life: 2 h
[20]
  half-life: 1.4 h
[21]
  half-life: 6.7 h
[22]
  half-life: 6.5 h
[23]
  bioavailability: 70%
[24]
  bioavailability: 99%
[25]
  concentration at 0.5 h: 1200 nM
[26]
  concentration at 0.5 h: 3600 nM
[27]
  concentration at 0.5 h: 38000 nM
[1]
  bioavailability: 25%
[2]
  solubility: 46 µM (≈ 19.5 µg/mL)

## CNC(=O)Nc1cc(Oc2cncc(C)c2)c(-c2ccc(OC[C@H](C)O)nc2)cn1
[2]
  solubility: 176 µM (≈ 72.1 µg/mL)

## CNC(=O)Nc1cc(Oc2cncc(C)c2)c(-c2ccc(OC[C@@H](C)O)nc2)cn1
[2]
  solubility: 226 µM (≈ 92.5 µg/mL)
